# Source: US20240115537A1, “COMPOSITION FOR PREVENTING OR TREATING BREAST CANCER COMPRISING COMPOUND DERIVED FROM DENDROPANAX MORBIFERUS” (JEJU NATIONAL UNIVERSITY INDUSTRY-ACADEMIC COOPERATION …, priority 2022, published 2024)
# Key:
# MCF-7 cells = assay: Cell proliferation / viability assay (EZ-Cytox); assay type: cell-based; details: Homo sapiens, MCF7, A of FIG. 6, read-out: IC50 (drug concentration required for 50% growth reduction in a survival curve)
# Protocol: Human breast cancer cell lines, MDA-MB-231 and MCF-7 cells, were purchased from the Korea Cell Line Bank and cultured in an incubator with an atmospheric environment of 5% CO2 and a Dulbecco's Modified Eagle's Medium (DMEM) containing 10% fetal bovine serum (Corning, Glendale, AZ, USA) and 1% penicillin/streptomycin.
# MCF-7 cells (1.5×10^6 cells/plate) and MDA-MB-231 cells (1.0×10^6 cells/plate) were seeded into a 96-well plate for 24 hours and incubated with dihydroconiferyl ferulate (0, 10, 25, 50, 75, 100, 150, and 200 μM). Thereafter, cell viability was examined using the EZ-Cytox Plus Kit (DoGenBio, Seoul, Korea) according to the manufacturer's protocol. OD450 values were measured using a VERSAmax ELISA reader (Molecular Device, San Jose, CA, USA).
# Breast cancer cells MCF-7 and MDA-MB-231 were treated with dihydroconiferyl ferulate, a compound purified from the leaves of Dendropanax morbiferus H.Lev at various concentrations to test an antiproliferative effect, and an experimental method was described in Experimental Example 3.
# [1] = tested on: CD44high/CD24low population of MDA-MB-231 cells; assay: CD44+/CD24- flow cytometry; assay type: cell-based, human; details: 50 μM, 24 hours, control 80.8%
# Protocol: MDA-MB-231 cancer cells (1.5×10^6 cells) were cultured in a 6-well plate for 24 hours and treated with DMSO as a control group or dihydroconiferyl ferulate (50 μM) for 24 hours. Thereafter, the cells isolated into single cells were incubated with an anti-human CD44 antibody (FITC-conjugated) and an anti-human CD24 antibody (PE-conjugated) (BD) at 4° C. for 45 minutes. After washing with 1×PBS, CD44^+/CD24^− cells were examined using a flow cytometer Accuri C6 machine (BD San Jose, CA, USA).
# CD44^+/CD24^−, a representative marker of breast cancer stem cells, was associated with stem cell-like activity in breast cancer, and since CD44^+/CD24^− MDA-MB-231 cells show higher tumorigenesis and metastasis than CD44−/CD24^+ MDA-MB-231 cells, MDA-MB-231 cells were treated with dihydroconiferyl ferulate, and then changes in the CD44^high/CD24^low population were measured, and the experimental method was described in Experimental Example 5.
smiles,measurement,setting,value
COc1cc(/C=C/C(=O)OCCCc2ccc(O)c(OC)c2)ccc1O [dihydroconiferyl ferulate],IC50,MCF-7 cells,112 µM
same,CD44high/CD24low population,[1],34.0%
